# From ChEMBL document CHEMBL5365449, “Permeation behavior of porphyrin derivatives with different functional group positions across cancer cell membranes” (Bioorg Med Chem Lett, 2023)
# Columns and labels:
# [1] = Drug accumulation of the compound in human MCF7 cells assessed as accumulation at lysosome by fluorescence microscopy; format: ADME, subcellular
# [2] = Drug accumulation of the compound in human MCF7 cells assessed as accumulation at mitochondria by fluorescence microscopy; format: ADME
# [3] = Drug uptake in human MCF7 cells assessed as increase in internalization by measuring fold increase of fluorescence intensity in the presence of LDL by fluorescence spectrum analysis; format: ADME, cell-based
# [4] = Drug accumulation of the compound in human MCF7 cells assessed as accumulation at 4 degC by fluorescence microscopy; format: ADME, cell-based
Structure (SMILES),Drug uptake [1],Drug uptake [2],fold change (FC) [3],Drug uptake [4]
O=C(Nc1ccc(-c2c3nc(c(-c4ccccc4)c4ccc([nH]4)c(-c4ccccc4)c4nc(c(-c5ccccc5)c5ccc2[nH]5)C=C4)C=C3)cc1)c1ccccc1,Active,Active,6,3.7 10^-2microM
O=C(NC1=Cc2nc1c(-c1ccccc1)c1ccc([nH]1)c(-c1ccccc1)c1nc(c(-c3ccccc3)c3ccc([nH]3)c2-c2ccccc2)C=C1)c1ccccc1,Active,Active,12,7.5 10^-2microM
